Measured values taken from patent US11826402B2, “Combination therapy involving antibodies against claudin 18.2 for treatment of metastatic pancreatic adenocarcinoma” (Astellas Pharma Inc., priority 2013, dated 2023).

Assays:
[1] = tested on: LVT pancreatic cancer cell lines; assay: IMAB362-mediated ADCC assay, LVT pancreatic cancer cell lines and corresponding parental cell lines; assay type: cell-based, human; conditions: for ADCC EC50 / ADCC Max. lysis: at least 2 donors
Experimental: For ADCC assays pancreatic cancer cell lines were transiently transfected with luciferase RNA. This luciferase RNA (pST1-luc2mut-2 hBgUTR-A121-EciI vector (pST1-109)) was produced with an ARCA cap and dissolved in H2O. RNA was stored in 22 μl aliquots at −80° C. For all pancreas cell lines the optimal electroporation conditions were determined resulting in highest transfection rates and viability of the cells. In each assay cells were detached with PBS/5 mM EDTA and 2.5×10^6 cells dissolved in 250 μl X-Vivo were mixed in ice-cold cuvettes with 10 μg RNA. Cells were immediately electroporated (GenePulser Xcell, Biorad) and resuspended in pre-warmed Assay-medium adjusting the cells to 5×10^5 cells/ml. Tested electroporation conditions were for all cell lines: • EP1: 250 V, 475 μF • EP2: 200 V, 300 μF • EP3: 150 V, 300 μF • EP4: 200 V, 400 μF • EP5: 250 V, 950 μF • Control: 0 V, 0 μF
The viability of the cells was determined directly after electroporation using CASY or by staining cells with Trypan blue and determining the percentage of dead cells in the Neubauer chamber. Cells were seeded in quadruplicates in white 96-well plates (2.5×10^4 cells/well) and incubated for 24 h. Subsequently, luciferase activity was measured in a luminometer (Tecan Infinite200) after addition of luciferin mix for 90 min. Transfection was successful and consequently ADCC measurable, if RLU values >1.000 were obtained.
Pancreatic cancer target cells were seeded two days in advance in flasks to obtain 80-90% confluent cultures on the day ADCC started. […] NUGC-4 sub 10cH11 subE10 Luci #2 cells (8000 cells/well) were seeded in addition as positive controls in all assays. Cells were cultivated for 4-6 h before addition of antibody and purified PBMCs. PBMCs were prepared from fresh human buffy coat obtained from healthy donors. About 3× 20-25 ml blood was diluted (1:2) with PBS and carefully layered on 4×15 ml Ficol-Paque Plus (GE Healthcare) in 50 ml Falcon tubes. Gradients were centrifuged (25 min, 700 g). After centrifugation, peripheral blood mononuclear cells (PBMC) were collected from the interphase, washed in PBS/2 mM EDTA, centrifuged (5 min, 468 g), again resuspended in PBS/2 mM EDTA and centrifuged (10 min, 208 g) to remove the platelets. The pellets were resuspended in 50 ml PBS/2 mM EDTA and cells were counted. PBMCs were centrifuged (5 min, 468 g) and resuspended in X-Vivo-15 culture medium at a concentration of 1.6×10^7 cells/ml for addition to the pancreas cells and 1.28×10^7 cells/ml for addition to the NUGC-4 sub 10cH11 subE10 Luci #2 cells.
Of each dilution 25 μl was added in quadruplicates to the target cells. PBS without antibodies was added in the medium and lysis control wells. Subsequently, 25 μl PBMCs were added to each well (E:T ratio=40:1) and plates were incubated for 24 h±1 h at 37° C., 5% CO2.
The next day, 10 μl 8% Triton X100/PBS solution was added to the lysis control wells and 10 μl PBS in all other wells. Finally, 50 μl freshly prepared luciferin stock solution was added (160 mM HEPES, 1×PBS, 3.84 mg/ml D-Luciferin (BD Biosciences)) to each well and plates were incubated for 80 min at RT in the dark. Luminescence resulting from the oxidation of […] by the luciferase of viable cells was measured using a microplate-reader (Infinite200, Tecan, Switzerland). Percentage of cellular cytotoxicity was calculated using the following formula: Specific killing (%)=100−[(RLUsample−RLUtriton)/(RLUmedium ctrl−RLUtriton)×100]
ADCC analyses were also performed with LVT pancreatic cancer cell lines and their corresponding parental cell lines (FIG. 22B-F).

NUGC-4 = assay: IMAB362-induced ADCC on gastric cancer cells, also with ZA/IL-2 cultivated PBMCs; assay type: cell-based, human
Experimental: Specific killing was determined in luciferase assays.

[2] = tested on: MiaPaCa-2-LVT, Suit2-LVT and CAPAN1-LVT; assay: IMAB362-mediated CDC assay, LVT cell lines; assay type: cell-based, human
Experimental: CDC was performed as follows.
CHO-K1 cells stably transfected with CLDN18.2 (p740) and luciferase were used as assay positive controls in each assay (FIG. 23A). […] This is most likely due to the fact that neoplastic cells over-express one or more membrane bound complement inhibitory proteins (e.g. CD46, CD55 and CD59) (Geis et al., Curr Cancer Drug Targets, 2010 10:922-931). However, if expression of these inhibitory proteins on tumor cells affect clinical outcome of an antibody therapy is still contradictory (Dzietczenia et al. Med. Oncol. 2010, 27:743-6; Weng and Levy at al., Blood 2001 98:1352-7). In addition to the endogenous cell lines, all the LVT cell lines were tested in CDC assays.

[3] = Repeated dose toxicity study in mice; assay type: in vivo
HUP-T3 = assay: IMAB362-mediated ADCC assay; assay type: cell-based, human; conditions: at least 2 donors
HUP-T4 = assay: IMAB362-mediated ADCC assay; assay type: cell-based, human; conditions: at least 2 donors

In the case of “IMAB362: chimeric IgG1 antibody directed against CLDN18.2, developed by Ganymed Pharmaceuticals AG”, the “ADCC EC50” value ([1]; BxPC3 (ATCC)) is reported as “n.m”, the “ADCC Max. lysis” value ([1]; BxPC3 (ATCC)) is reported as “n.m” and the “ADCC EC50” value ([1]; BxPC3 (ECACC)) is reported as “n.m”. For the same substance, the “ADCC EC50” value ([1]; BxPC3 LVT) was 0.0477 ± 0.0191 µg/mL, the “ADCC Max. lysis” value ([1]; BxPC3 LVT) was 90.6 ± 6.4% and the “ADCC EC50” value ([1]; CAPAN1-LVT) was 0.06503 ± 0.0351 µg/mL. The “ADCC Max. lysis” value ([1]; CAPAN1-LVT) was 92.6 ± 5.5%, the “ADCC EC50” value ([1]; CAPAN1) was “n.m” and the “ADCC Max. lysis” value ([1]; CAPAN1) was “n.m”. For the same substance, the “ADCC EC50” value ([1]; DANG-LVT) was 0.0523 ± 0.0277 µg/mL, the “ADCC Max. lysis” value ([1]; DANG-LVT) was 85.9 ± 11.7% and the “ADCC EC50” value ([1]; HPAC-LVT) was 0.1168 ± 0.1054 µg/mL. For the same substance, the “ADCC Max. lysis” value ([1]; HPAC-LVT) was 76.2 ± 19.4%, the “ADCC Max. lysis” value ([1]; HPAC) was 0-22.2% and the “target dependence of ADCC” value ([1]; LVT cell lines versus CLDN18.2 negative parental cell lines) was “only CLDN18.2 positive target cells are killed”. The “ADCC killing” value ([1]; LVT pancreas CA cell lines) was “killed upon addition of small amounts of antibody at high rates”, the “ADCC EC50” value ([1]; MiaPaCa2-LVT) was 0.0234 ± 0.0123 µg/mL and the “ADCC Max. lysis” value ([1]; MiaPaCa2-LVT) was 78.1 ± 6.0%. For the same substance, the “ADCC EC50” value ([1]; MiaPaCa2) was “n.m”, the “ADCC EC50” value ([1]; Patu8902-LVT) was 0.0492 ± 0.0862 µg/mL and the “ADCC Max. lysis” value ([1]; Patu8902-LVT) was 74.1 ± 16.4%. The “ADCC EC50” value ([1]; Patu8902) was “n.m”, the “ADCC EC50” value ([1]; Suit2-LVT) was 0.0732 ± 0.0147 µg/mL and the “ADCC Max. lysis” value ([1]; Suit2-LVT) was 81.2 ± 7.6%. The “ADCC EC50” value ([1]; Suit2) was “n.m”, the “ADCC Max. lysis” value ([1]; Suit2) was “n.m” and the “ADCC EC50” value ([1]; YAPC-LVT) was 0.0295 ± 0.0157 µg/mL. The “ADCC Max. lysis” value ([1]; YAPC-LVT) was 91.5 ± 6.3%, the “ADCC EC50” value ([1]; YPAC) was “n.m” and the “ADCC Max. lysis” value ([1]; YPAC) was “n.m”. For the same substance, the “ADCC activity with ZA/IL-2 cultivated PBMCs” value (NUGC-4; PBMCs cultivated 14 days with ZA/IL-2) was “Strong IMAB362-dependent ADCC activity”, the “maximum lysis rates (ADCC)” value (NUGC-4; up to 200 μg/ml, 24 hours, human PBMC E:T 40:1) was 80-100% and the “CDC EC50” value ([2]; BxPC3 LVT) was “n.m”. The “CDC Max. lysis” value ([2]; BxPC3 LVT) was “n.m”, the “CDC EC50” value ([2]; CAPAN1-LVT) was 0.9701 µg/mL and the “CDC Max. lysis” value ([2]; CAPAN1-LVT) was 79.1%. For the same substance, the “CDC EC50” value ([2]; DANG-LVT) was “n.m”, the “CDC Max. lysis” value ([2]; DANG-LVT) was “n.m” and the “CDC EC50” value ([2]; HPAC-LVT) was “n.m”. For the same substance, the “CDC Max. lysis” value ([2]; HPAC-LVT) was “n.m”, the “CDC EC50” value ([2]; MiaPaCa2-LVT) was 0.34 µg/mL and the “CDC Max. lysis” value ([2]; MiaPaCa2-LVT) was 78.4%. The “CDC EC50” value ([2]; Patu8902-LVT) was 0.291 µg/mL, the “CDC Max. lysis” value ([2]; Patu8902-LVT) was 76.7% and the “CDC EC50” value ([2]; Suit2-LVT) was “n.m”. The “CDC Max. lysis” value ([2]; Suit2-LVT) was “n.m”, the “CDC EC50” value ([2]; YAPC-LVT) was “n.m” and the “CDC Max. lysis” value ([2]; YAPC-LVT) was “n.m”. The gastric toxicity ([3]; any toxicity study) was “no gastric toxicity”, the “tolerability of repeated doses i.v.” value ([3]; weekly for 3 months, up to 400 mg/kg) was “well tolerated” and the “ADCC EC50” value (HUP-T3) was “n.m”. The “ADCC EC50” value (HUP-T4) was “n.m” and the “ADCC Max. lysis” value (HUP-T4) was “n.m”.
